Experimental data reported in PubChem BioAssay (NCI).
Several values for one entry are separate records, joined by “and”; a condition that tells them apart may be missing. Equal values may be shown once.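 All cell lines were grown in 96-well plates and treated with compound for 48 hours. The concentration for full growth arrest is given as TGI.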

Columns and labels:
Assay in all cases: NCI-60 cell line screen, 48 h
SF-295 CNS = test system: SF-295 CNS
NCI-H460 lung = test system: NCI-H460 lung
A549 NSCLC = test system: A549 NSCLC
MDA-N = test system: MDA-N
M14 melanoma = test system: M14 melanoma
SF-268 CNS = test system: SF-268 CNS
NCI-H23 lung = test system: NCI-H23 lung
MDA-MB-435 = test system: MDA-MB-435
HCT-116 colon = test system: HCT-116 colon
MOLT-4 leukemia = test system: MOLT-4 leukemia
SF-539 CNS = test system: SF-539 CNS
BT-549 breast = test system: BT-549 breast

Row | Structure (SMILES) | TGI (SF-295 CNS) | TGI (NCI-H460 lung) | TGI (A549 NSCLC) | TGI (MDA-N) [µM] | TGI (M14 melanoma) | TGI (SF-268 CNS) | TGI (NCI-H23 lung) | TGI (MDA-MB-435) [µM] | TGI (HCT-116 colon) | TGI (MOLT-4 leukemia) | TGI (SF-539 CNS) | TGI (BT-549 breast) [µM]
1 | Cc1cccc(NC(=S)N=Nc2c(O)[nH]c3ccccc23)c1 | > 100 µM | > 100 µM | > 100 µM | > 100 | > 100 µM | 58.7 µM | > 100 µM | > 100 | > 100 µM | > 100 µM | > 100 µM | –
2 | COc1cccc(-c2cc(=O)c3c(C)ccnc3[nH]2)c1 | > 100 µM | > 34.4 µM | > 100 µM | – | > 100 µM | > 100 µM | > 100 µM | – | > 100 µM | > 100 µM | – | > 100
3 | O[C@@H]1C[C@@H]2N[C@@](O)(C[C@@H]2O)[C@H]1O | > 100 µM | > 100 µM | > 100 µM | > 100 | > 100 µM | > 100 µM | > 100 µM | > 100 | > 100 µM | > 100 µM | > 100 µM | –
4 | C(=C\C(SCc1ccccc1)SCc1ccccc1)/c1ccccc1 | > 10 µM | > 10 µM | > 10 µM | > 10 | > 10 µM | > 10 µM | > 10 µM | – | > 10 µM | > 10 µM | > 10 µM | –
5 | CC1C[C@]2(C)C(=O)N(c3ccccc3)C(=N)[C@@H]2N(C)c2ccccc21 (stereo not given in full) | > 100 µM | > 100 µM | > 100 µM | > 100 | > 100 µM | > 100 µM | > 100 µM | > 100 | > 100 µM | > 100 µM | > 100 µM | –
6 | Cc1cc2c(c(C=NCc3ccccc3)c1)OC1(C=C2)Oc2ccccc2C(=O)N1C (stereo not given) | > 100 µM | 55.4 µM | > 100 µM | – | > 100 µM | 76.3 µM | 69.6 µM | 78.4 | 61.6 µM | 36.5 µM | – | 62.5
7 | CC(C)=CCSC1CC2C(CC1(C)O)C2(C)C (stereo not given) | 55.9 µM and 35.2 µM | 33.7 µM and 27.2 µM | 24.1 µM and 30.2 µM | – | 32 µM and 27.9 µM | 34.9 µM and 29.8 µM | 29.8 µM and 25 µM | – | 33.5 µM and 28.7 µM | 40.9 µM and 67.5 µM | 32.3 µM and 29.6 µM | –
8 | COCc1cc2c(cc1/C=C/[N+](=O)[O-])OCO2 | 36.3 µM | 34.3 µM | 32.2 µM | 32.6 | 30.6 µM | 40.4 µM | 44 µM | 33.2 | 34 µM | > 100 µM | 44.9 µM | –
9 | CC(C)C[P+](c1ccccc1)(c1ccccc1)c1ccccc1 | 90.5 µM | > 100 µM | > 100 µM | – | > 100 µM | > 100 µM | > 100 µM | 25 | > 100 µM | > 100 µM | > 100 µM | > 100
10 | COc1ccccc1N1CCN(Cn2c(=O)oc3cccnc32)CC1 | > 100 µM | > 100 µM | > 100 µM | > 100 | > 100 µM | > 100 µM | > 100 µM | > 100 | > 100 µM | > 100 µM | > 100 µM | –
11 | CC(C)=CCC/C(C)=C/CC/C(C)=C/CC/C(C)=C/CC/C(C)=C\CC/C(C)=C/CC/C(C)=C/CC/C(C)=C/Cc1cc(O)ccc1O | 3.76 µM | 12.5 µM | > 22.6 µM | – | 1.25 µM | 5.21 µM | 1.96 µM | – | 1.87 µM | 8.34 µM | 3.19 µM | 5.81
12 | CCC1C(c2cc(OC)c(OC)c(OC)c2)c2cc3c(cc2OC1N1CCOCC1)OCO3 (stereo not given) | 8.52 µM | 12.3 µM | 17.8 µM | 3.83 | 23.7 µM | 41.5 µM | – | – | 13.4 µM | – | – | 22
13 | CC1(C)CC(=O)c2c(nc3ccc4ccccc4c3c2-c2ccc(NC(=O)CCC(=O)Nc3ccc(-c4c5c(nc6ccc7ccccc7c46)CC(C)(C)CC5=O)cc3)cc2)C1 | > 100 µM | > 100 µM | > 100 µM | > 100 | > 100 µM | > 100 µM | – | > 100 | > 100 µM | > 100 µM | > 100 µM | –
14 | CN1CN(c2ccccc2)C2(CCN(CCc3csc4ccccc34)CC2)C1=O | – | – | 64.2 µM | – | 38.4 µM | > 100 µM | 42.5 µM | 31.6 | 23.4 µM | 41.9 µM | 23 µM | 17.7
15 | C[C@H](O)C1CC(Cn2nnc3c(N)ncnc32)C1(C)C (stereo not given in full) | > 100 µM | – | > 100 µM | > 100 | > 100 µM | > 100 µM | – | > 100 | > 100 µM | – | > 100 µM | –
16 | Cc1cn(Cc2ccccc2CCl)c(=O)[nH]c1=O | 30.4 µM | 44.3 µM | 36.6 µM | – | 28.2 µM | 38.1 µM | 23.3 µM | 29 | 17.9 µM | > 100 µM | 24.6 µM | –
17 | COc1ccc2c(c1)c1c(n2CCN2CCCCC2)-c2ccccc2CC1 | 28.4 µM | 28.3 µM | 36.6 µM | – | 28.7 µM | 30 µM | 31.9 µM | 38.3 | 31 µM | 40.7 µM | 27.4 µM | 41.5
